Experimental data taken from patent US5059589A, “Glaucoma treatment” (Abbott Laboratories, priority 1990, dated 1991).
Counter-ions that a name gives are not always drawn.

System: intraocular pressure in rabbits
Assay: Effects of topically administered renin inhibiting compounds on intraocular pressure of rabbits
Assay type: in vivo, Male albino, New Zealand rabbits
Conditions: topical 0.1 ml, 0.1% (w/v)
Procedure: The antiglaucoma activity of the compounds was tested by measuring the effect on intraocular pressure in rabbits as described by Tinjum, A.M., Acta Ophthalmologica, 50, 677 (1972). Male albino, New Zealand rabbits were placed in restraining devices and the intraocular pressure was measured with an applamatic tonometer. Exactly 0.1 ml of an isotonic saline solution containing a test compound was instilled into the conjuctival sac and the intraocular pressure was measured at 5, 15, 30, 60, 90, 120 and 180 minutes afterwards.

[1] = 15 minutes after administration
[2] = 30 minutes after administration
[3] = 60 minutes after administration
[4] = 90 minutes after administration
[5] = 120 minutes after administration
[6] = 180 minutes after administration

| Molecule | Mean Intraocular Pressure in mmHg (0 minutes after administration) [mmHg] | Mean Intraocular Pressure in mmHg (5 minutes after administration) [mmHg] | Mean Intraocular Pressure in mmHg [1] [mmHg] | Mean Intraocular Pressure in mmHg [2] [mmHg] | Mean Intraocular Pressure in mmHg [3] [mmHg] | Mean Intraocular Pressure in mmHg [4] [mmHg] | Mean Intraocular Pressure in mmHg [5] [mmHg] | Mean Intraocular Pressure in mmHg [6] [mmHg] |
| --- | --- | --- | --- | --- | --- | --- | --- | --- |
| CC(C)CC(NC(=O)C(Cc1ccccc1)NC(=O)CCCC(=O)O)C(=O)N[C@@H](CC1CCCCC1)[C@@H](O)[C@@H](O)CC(C)C (stereo partly drawn) [Compound XIII, 4-Carboxybutyroyl-Phe-Leu amide of 2(S)-amino 1-cyclohexyl 3(R),4(S)-dihydroxy 6-methylheptane] | 19.5 | 17.6 | 17.2 | 15.6 | 16.4 | 16.3 | 17.5 | 15.3 |
| COc1ccc(C[C@H](NC(=O)CC(C)(C)N)C(=O)N[C@@H](Cc2cnc[nH]2)C(=O)N[C@@H](CC2CCCCC2)[C@@H](O)[C@@H](O)CC(C)C)cc1 [Compound II, H-((beta,betadimethyl)-beta-Ala)-(4 OCH3)Phe-His amide of 2(S)-amino-1-cyclohexyl-3(R),4(S) dihydroxy-6-methylheptane di-acetic acid salt] | 18.4 | 15.0 | 13.5 | 13.2 | 13.4 | 17.1 | 19.0 | 17.2 |
| CC(C)CC(=O)NCC[C@H](O)[C@H](CC1CCCCC1)NC(=O)C(Cc1cnc[nH]1)NC(=O)C(Cc1ccccc1)NC(=O)OC(C)(C)C (stereo partly shown) [Compound VIII] | 19.4 | 17.0 | 16.5 | 15.4 | 18.4 | 21.2 | 20.5 | 21.9 |
| CC(C)C[C@H](O)[C@H](O)[C@H](CC1CCCCC1)NC(=O)[C@H](Cc1cnc[nH]1)NC(=O)[C@H](Cc1ccccc1)NC(=O)N1CCC(O)CC1 [Compound III, (1-(4 hydroxypiperidinyl)carbonyl)-Phe-His amide of 2(S)-amino 1-cyclohexyl-3(R),4(S) dihydroxy 6-methylheptane] | 19.1 | 15.5 | 12.4 | 13.9 | 14.9 | 16.3 | 17.8 | 18.2 |
| CCN1C[C@@H]([C@H](O)[C@H](CC2CCCCC2)NC(=O)[C@H](Cc2cnc[nH]2)NC(=O)[C@@H](CC(=O)N(C)CCOCOCCOC)Cc2ccccc2)OC1=O [Compound IV, (2R)-2-benzyl-3-((2-methoxyethoxy-methoxyethyl)methylaminocarbonyl)propionyl-His amide of (2'S,1'R,5S)-3-ethyl-5-(1'-hydroxy 2'-amino-3'-cyclohexylpropyl) -oxazolidin-2-one] | 18.2 | 14.5 | 13.0 | 13.3 | 14.2 | 16.3 | 14.9 | 16.2 |
| CC[C@@H]1C(=O)OC[C@@H]1Cc1cncn1C [Pilocarpine, reference compound] | 17.6 | 14.4 | 13.0 | 11.9 | 13.0 | 12.6 | 16.4 | 17.7 |
| CC(C)(C)OC(=O)NC(Cc1ccccc1)C(=O)NC(Cc1cnc[nH]1)C(=O)N[C@@H](CC1CCCCC1)[C@@H](O)[C@@H](O)CN (stereo partly drawn) [Compound X, Boc-Phe-His amide (4-amino) of (2S,3R,4S) 1,4-diamino-2,3-dihydroxy-5-cyclohexylpentane] | 20.8 | 20.6 | 20.6 | 15.9 | 15.1 | 19.1 | 20.6 | 21.7 |
| Boc-Phe-Histidinyl-4-amino-3-hydroxy 5-cyclohexylpentanoic acid amide of 2 methylbutylamine [Compound VII] | 19.7 | 17.2 | 13.8 | 14.3 | 14.8 | 19.3 | 21.1 | 22.7 |
| CC(C)(C)OC(=O)NC(Cc1ccccc1)C(=O)NC(Cc1cnc[nH]1)C(=O)NC(CC1CCCCC1)C(O)CSC1CCCCC1 (stereo not drawn) [Compound VI, Boc-Phe-His amide of 3-amino-4 cyclohexyl 1 cyclohexylmercapto-2-hydroxybutane] | 21.0 | 16.5 | 16.5 | 15.2 | 14.7 | 21.7 | 22.4 | 19.9 |
| C=C(C[C@H](O)[C@H](O)[C@H](CC1CCCCC1)NC(=O)C(Cc1cnc[nH]1)NC(=O)C(Cc1ccccc1)NC(=O)OC(C)(C)C)C(=O)[O-].[Na+] (stereo partly drawn) [Compound XII, Boc-Phe-His amide of (4S,5R,6S)-6-amino-7-cyclohexyl-4,5-dihydroxy-1-hepten-2-oic acid sodium salt] | 19.3 | 12.5 | 10.3 | 12.4 | 12.3 | 12.3 | 14.6 | 16.3 |
| C=C(C[C@H](O)[C@H](CC1CCCCC1)NC(=O)C(Cc1cnc[nH]1)NC(=O)C(Cc1ccccc1)NC(=O)OC(C)(C)C)C(=O)NCCC(C)C (stereo partly drawn) [Compound IX, Boc-Phe-His amide of (4S,5S) N-(3-methylbutyl)-5-amino-6-cyclohexyl-1-hexen-4-ol-2-carboxamide] | 22.2 | 22.5 | 18.1 | 15.8 | 19.5 | 22.4 | 24.3 | 24.2 |
